One may read the IC50 as the concentration needed to halve the response being measured.

Experimental findings from patent publication US9156852B2, “Thieno[3,2-D]pyrimidine derivatives having inhibitory activity for protein kinases” (HANMI PHARM. CO., LTD, priority 2011, dated 2015) are described below.

In assay [1] the test system is HepG2 cells (N-RAS mutant hepatoma carcinoma cell). Put plainly: Inhibition on cell growth of N-RAS mutant cell HepG2 (SRB). The class given is cell-based. Particulars: Homo sapiens, 72 hours, SRB staining, described as GI50 in the method. On the procedure:
N-RAS mutant cells HepG2 cells (HCC) cell lines (ATCC # HB-8065™), were obtained from ATCC (American Type Culture Collection: Rockville, Md.). HepG2 cell lines were incubated in a MEM medium supplemented with 10% FBS and 1% penicillin/streptomycin (Gibco BRL) under 37° C., 5% CO2 and 95% air. The cell lines were transferred into 96-well plates at a density of 5,000 cells/well, and cultured for 18 hours or more. The cell lines were treated with […]˜0.1 nM of test compounds, and cultured for 72 hours.
To evaluate cell viabilities, HepG2 cell lines were fixed with 10% TCA (trichloroacetic acid), stained with SRB (sulfohodamine B), and an absorbance was measured at 540 nm. Then, GI50, i.e., the concentration of drug to cause 50% reduction in proliferation of cancer cells, were calculated therefrom. The growth rates of cancer cells were calculated by Equation 1 or 2. [(Ti−Tz)/(C−Tz)]×100 (for Ti>=Tz) [Equation 1] [(Ti−Tz/Tz)×100 (for Ti<Tz) [Equation 2]
(§1) In Equations 1 and 2, ‘Tz’ refers to a density of untreated cells, which is an absorbance in 0% cell growth groups. ‘C’ refers to a density of cells cultured by adding only medium, and ‘Ti’ refers to a density of cells treated with test compounds.
GI50 value is the concentration of test compound when the value of Equation 1 is 50, which indicates the concentration of test compound needed to reduce the growth of cancer cells to 50%. On each measurement, test compounds were compared with a control.
For orientation: In SRB staining, fixed cells bind dye roughly in proportion to their protein.

In another assay the target is DDR2 (Homo sapiens (Human), UniProt Q16832). In words: DDR2 kinase activity, Kinase Screening and Profiling Service (Invitrogen). The class given is biochemical. On the procedure: (§2) As such, the compounds prepared in Examples were tested for inhibitory activity against FMS, DDR1 and DDR2 kinases using Kinase Screening and Profiling Service (Invitrogen, U.S.).
Assay [2] has as its system SK-Mel-2 cells (N-RAS mutant melanoma). In words: Inhibition on cell growth of N-RAS mutant cell SK-Mel-2 (SRB). The class given is cell-based. The following applies: Homo sapiens, 72 hours, SRB staining, described as GI50 in the method. The method, then: N-RAS mutant cells, SK-Mel-2 cell lines (ATCC #HTB-68™), were obtained from ATCC (American Type Culture Collection: Rockville, Md.). SK-Mel-2 cell lines were incubated in a MEM medium supplemented with 10% FBS and 1% penicillin/streptomycin (Gibco BRL) under 37° C., 5% CO2 and 95% air. The cell lines were transferred into 96-well plates at a density of 5,000 cells/well, and cultured for 18 hours or more. The cells were treated with […]˜0.1 nM of test compounds, and cultured for 72 hours.
To evaluate cell viabilities, SK-Mel-2 cell lines were fixed with 10% TCA (trichloroacetic acid), stained with SRB (sulfohodamine B), and an absorbance was measured at 540 nm. Then, GI50, i.e., the concentration of drug to cause 50% reduction in proliferation of cancer cells, were calculated therefrom. The growth rates of cancer cells were calculated by Equation 1 or 2. [(Ti−Tz)/(C−Tz)]×100 (for Ti>=Tz) [Equation 1] [(Ti−Tz/Tz)×100 (for Ti<Tz) [Equation 2]
as §1
GI50 value is the concentration of a test compound when the value of Equation 1 is 50, which indicates the concentration of test compound needed to reduce the growth of cancer cells to 50%. On each measurement, test compounds were compared with a control.

The target in a further assay is FMS (Homo sapiens (Human), UniProt P07333). Put plainly: FMS kinase activity, Kinase Screening and Profiling Service (Invitrogen). The assay is classed as biochemical. The method, then:
as §2

For another assay, the target named is DDR1 (Homo sapiens (Human), UniProt Q08345). In words: DDR1 kinase activity, Kinase Screening and Profiling Service (Invitrogen). The class given is biochemical. The method, then:
as §2

For another assay, the target named is RAF1 Y340D Y341D (C-RAF) (Homo sapiens (Human), UniProt P04049, Y340D/Y341D). Put plainly: RAF kinase activity, Kinase Profiling Service (Invitrogen). The assay is classed as biochemical. On the procedure: (§3) The levels of enzymatic inhibition of the compounds were calculated as percent inhibition at various concentrations. Based on percent inhibition, dose-response curves were plotted using GraphPad Prism software.

The next assay has as its target B-RAF normal type (Homo sapiens (Human), UniProt P15056). Described as above. The class given is biochemical. On the procedure:
as §3

The next assay deals with B-RAF^V600E (Homo sapiens (Human), UniProt P15056, V600E). The description is as above. Particulars: B-RAF V600E mutant; read-out: B-RAFv^600E (IC50). The class given is biochemical. The method, then: as §3
Sequence of B-RAF^V600E (P15056 whole entry V600E): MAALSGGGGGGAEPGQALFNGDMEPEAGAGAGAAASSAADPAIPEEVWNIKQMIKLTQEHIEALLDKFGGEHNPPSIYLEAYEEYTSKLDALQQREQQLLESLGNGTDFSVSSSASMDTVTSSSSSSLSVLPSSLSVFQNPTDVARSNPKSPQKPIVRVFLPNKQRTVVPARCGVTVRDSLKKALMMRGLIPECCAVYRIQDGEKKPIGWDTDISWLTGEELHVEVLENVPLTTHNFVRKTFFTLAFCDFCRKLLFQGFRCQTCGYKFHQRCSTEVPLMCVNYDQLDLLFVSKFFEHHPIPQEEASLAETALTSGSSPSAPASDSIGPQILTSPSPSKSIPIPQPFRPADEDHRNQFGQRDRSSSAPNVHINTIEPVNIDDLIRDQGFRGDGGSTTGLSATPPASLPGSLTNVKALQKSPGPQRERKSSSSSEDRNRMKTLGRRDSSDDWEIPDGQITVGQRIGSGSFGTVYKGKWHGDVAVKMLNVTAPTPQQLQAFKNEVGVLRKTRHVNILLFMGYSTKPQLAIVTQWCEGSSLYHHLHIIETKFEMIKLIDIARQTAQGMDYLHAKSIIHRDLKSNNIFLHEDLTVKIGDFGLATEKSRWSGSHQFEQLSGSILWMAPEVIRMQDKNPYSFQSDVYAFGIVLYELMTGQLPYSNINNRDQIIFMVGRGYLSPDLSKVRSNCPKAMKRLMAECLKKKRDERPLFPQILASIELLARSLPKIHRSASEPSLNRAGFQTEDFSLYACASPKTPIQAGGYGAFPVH

Sequence of B-RAF normal type (P15056 whole entry): as the sequence (P15056 whole entry V600E) above, with E600V counted along it
Sequence of RAF1 Y340D Y341D (C-RAF) (P04049 whole entry Y340D/Y341D): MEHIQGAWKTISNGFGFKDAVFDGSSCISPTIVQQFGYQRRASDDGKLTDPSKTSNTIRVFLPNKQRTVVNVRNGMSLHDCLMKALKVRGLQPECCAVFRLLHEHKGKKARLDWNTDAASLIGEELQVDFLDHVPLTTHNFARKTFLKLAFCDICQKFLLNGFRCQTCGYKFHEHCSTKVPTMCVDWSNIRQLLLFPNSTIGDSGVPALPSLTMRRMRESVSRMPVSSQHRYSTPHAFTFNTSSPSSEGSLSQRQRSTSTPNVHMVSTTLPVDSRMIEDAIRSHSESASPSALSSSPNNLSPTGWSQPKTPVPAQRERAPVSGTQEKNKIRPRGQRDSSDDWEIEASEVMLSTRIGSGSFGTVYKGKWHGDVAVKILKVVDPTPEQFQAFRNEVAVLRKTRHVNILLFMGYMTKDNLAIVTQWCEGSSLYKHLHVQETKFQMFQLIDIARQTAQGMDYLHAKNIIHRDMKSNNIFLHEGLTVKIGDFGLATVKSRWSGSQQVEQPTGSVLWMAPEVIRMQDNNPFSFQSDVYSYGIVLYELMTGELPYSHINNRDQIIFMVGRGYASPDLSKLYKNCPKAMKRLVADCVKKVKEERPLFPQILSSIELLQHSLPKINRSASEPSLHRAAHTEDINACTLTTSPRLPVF
Sequence of DDR1 (Q08345 19-913): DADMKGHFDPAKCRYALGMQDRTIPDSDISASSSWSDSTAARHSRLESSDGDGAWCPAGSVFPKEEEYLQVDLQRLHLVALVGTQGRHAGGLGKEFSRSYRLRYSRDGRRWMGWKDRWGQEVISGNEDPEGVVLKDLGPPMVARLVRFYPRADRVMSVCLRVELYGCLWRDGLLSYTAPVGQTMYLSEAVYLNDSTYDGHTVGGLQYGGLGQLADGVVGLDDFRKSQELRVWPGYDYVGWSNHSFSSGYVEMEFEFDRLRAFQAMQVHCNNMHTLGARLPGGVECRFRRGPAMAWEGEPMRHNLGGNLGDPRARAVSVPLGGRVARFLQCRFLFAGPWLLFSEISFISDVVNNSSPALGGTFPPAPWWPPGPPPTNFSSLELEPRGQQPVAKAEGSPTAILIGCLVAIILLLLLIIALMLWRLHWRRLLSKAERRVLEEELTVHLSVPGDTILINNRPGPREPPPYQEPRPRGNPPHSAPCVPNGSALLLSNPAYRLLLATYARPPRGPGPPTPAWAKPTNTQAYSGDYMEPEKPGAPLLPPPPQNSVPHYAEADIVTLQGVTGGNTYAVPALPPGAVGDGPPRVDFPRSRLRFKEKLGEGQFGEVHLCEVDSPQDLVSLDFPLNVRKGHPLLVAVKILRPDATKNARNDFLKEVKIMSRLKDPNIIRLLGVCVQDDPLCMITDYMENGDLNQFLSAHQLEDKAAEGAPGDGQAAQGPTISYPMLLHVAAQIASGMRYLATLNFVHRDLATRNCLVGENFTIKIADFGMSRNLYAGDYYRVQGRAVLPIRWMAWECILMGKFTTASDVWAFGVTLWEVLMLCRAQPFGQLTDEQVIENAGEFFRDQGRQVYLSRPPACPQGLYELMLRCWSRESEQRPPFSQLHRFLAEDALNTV
Sequence of FMS (P07333 20-972): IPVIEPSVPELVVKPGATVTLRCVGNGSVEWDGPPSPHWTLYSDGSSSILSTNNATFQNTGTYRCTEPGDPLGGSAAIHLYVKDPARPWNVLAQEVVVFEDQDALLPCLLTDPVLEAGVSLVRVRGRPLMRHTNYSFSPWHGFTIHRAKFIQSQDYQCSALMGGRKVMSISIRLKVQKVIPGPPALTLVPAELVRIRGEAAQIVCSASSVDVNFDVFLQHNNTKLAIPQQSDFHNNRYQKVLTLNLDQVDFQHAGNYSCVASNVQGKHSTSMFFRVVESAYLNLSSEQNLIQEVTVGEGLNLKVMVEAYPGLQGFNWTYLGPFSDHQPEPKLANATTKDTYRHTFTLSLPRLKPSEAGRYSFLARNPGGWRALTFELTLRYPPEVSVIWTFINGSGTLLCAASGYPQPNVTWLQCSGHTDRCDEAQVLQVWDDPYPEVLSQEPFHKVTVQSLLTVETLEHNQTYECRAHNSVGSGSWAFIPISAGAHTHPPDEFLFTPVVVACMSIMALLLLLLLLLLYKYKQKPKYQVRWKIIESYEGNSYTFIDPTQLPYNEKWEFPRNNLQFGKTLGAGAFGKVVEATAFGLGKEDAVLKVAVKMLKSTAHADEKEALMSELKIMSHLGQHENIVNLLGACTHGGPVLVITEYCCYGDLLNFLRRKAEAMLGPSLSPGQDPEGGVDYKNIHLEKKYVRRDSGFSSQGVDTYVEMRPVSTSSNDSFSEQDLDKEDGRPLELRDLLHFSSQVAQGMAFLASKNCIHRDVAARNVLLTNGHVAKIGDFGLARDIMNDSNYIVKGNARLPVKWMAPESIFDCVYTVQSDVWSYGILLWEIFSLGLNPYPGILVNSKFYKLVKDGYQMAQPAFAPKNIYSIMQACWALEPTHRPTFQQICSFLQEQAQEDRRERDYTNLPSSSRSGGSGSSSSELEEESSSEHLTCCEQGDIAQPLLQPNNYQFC
Sequence of DDR2 (Q16832 22-855): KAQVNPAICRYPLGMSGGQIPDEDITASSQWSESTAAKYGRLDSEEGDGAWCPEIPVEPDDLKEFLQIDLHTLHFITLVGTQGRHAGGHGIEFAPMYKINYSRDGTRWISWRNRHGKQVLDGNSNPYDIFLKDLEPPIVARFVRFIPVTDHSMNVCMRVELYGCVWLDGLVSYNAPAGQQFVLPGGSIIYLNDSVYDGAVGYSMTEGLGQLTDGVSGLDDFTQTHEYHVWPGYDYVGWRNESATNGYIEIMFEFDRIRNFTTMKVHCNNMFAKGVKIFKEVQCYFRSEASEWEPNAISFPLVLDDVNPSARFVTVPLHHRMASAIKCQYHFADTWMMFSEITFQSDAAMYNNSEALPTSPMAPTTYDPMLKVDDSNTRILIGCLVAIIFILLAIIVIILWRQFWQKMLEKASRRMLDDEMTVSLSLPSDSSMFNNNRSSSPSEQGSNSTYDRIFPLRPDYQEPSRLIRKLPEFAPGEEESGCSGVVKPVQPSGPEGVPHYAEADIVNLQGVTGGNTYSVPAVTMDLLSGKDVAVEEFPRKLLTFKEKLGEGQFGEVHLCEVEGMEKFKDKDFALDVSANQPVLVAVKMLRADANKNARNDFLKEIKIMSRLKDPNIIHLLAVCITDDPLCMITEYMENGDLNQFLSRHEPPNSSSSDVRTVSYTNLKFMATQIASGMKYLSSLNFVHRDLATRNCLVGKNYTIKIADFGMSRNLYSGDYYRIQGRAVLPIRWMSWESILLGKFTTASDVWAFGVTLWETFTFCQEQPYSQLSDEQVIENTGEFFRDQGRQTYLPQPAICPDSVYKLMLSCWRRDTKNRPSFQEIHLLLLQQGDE

Regarding `CCCS(=O)(=O)Nc1ccc(F)c(C(=O)c2c[nH]c3ncc(-c4ccc(Cl)cc4)cc23)c1F` [Control, Vemurafenib, reference compound], the IC50 (in assay [1]; on DDR2; in assay [2]; on FMS; against DDR1) was more than 1000 nM each time.

`Cc1ccc2c(Nc3ccc(Cl)cc3)nccc2c1NC(=O)c1csc2c(N)ncnc12` [Example 1, 4-amino-N-(1-((4-chlorophenyl)amino)-6-methylisoquinolin-5-yl)thieno[3,2-d]pyrimidine-7-carboxamide]: the 50% inhibitory concentration (IC50) came out at 27 nM in assay [1]; 5 nM against DDR2; 56 nM in assay [2]; 1 nM on FMS; 2 nM at DDR1; 23 nM at RAF1 Y340D Y341D (C-RAF). The IC50 on B-RAF normal type is 121 nM; at B-RAF^V600E, 22 nM.

As for `COc1ccc(Nc2nccc3c(NC(=O)c4csc5c(N)ncnc45)c(C)ccc23)cc1` [Example 16, 4-amino-N-(1-((4-methoxyphenyl)amino)-6-methylisoquinolin-5-yl)thieno[3,2-d]pyrimidine-7-carboxamide], the IC50 was 24 nM in assay [1]; 52 nM in assay [2]; 5 nM at RAF1 Y340D Y341D (C-RAF); 15 nM at B-RAF normal type; 32 nM at B-RAF^V600E.

As for `Cc1ccc2c(Nc3cccc(Cl)c3)nccc2c1NC(=O)c1csc2c(N)ncnc12` [Example 38, 4-amino-N-(1-((3-chlorophenyl)amino)-6-methylisoquinolin-5-yl)thieno[3,2-d]pyrimidine-7-carboxamide], the IC50 in assay [1] turned out to be 41 nM; in assay [2], 97 nM.

With `Cc1ccc2c(Nc3ccc(OC(F)F)cc3)nccc2c1NC(=O)c1csc2c(N)ncnc12` [Example 50, 4-amino-N-(1-((4-(difluoromethoxy)phenyl)amino)-6-methylisoquinolin-5-yl)thieno[3,2-d]pyrimidine-7-carboxamide], the half-maximal inhibitory concentration (IC50) in assay [1] turned out to be 44 nM; in assay [2], 163 nM; at RAF1 Y340D Y341D (C-RAF) it was 32 nM; against B-RAF normal type, 128 nM; on B-RAF^V600E it was 26 nM.

As for `Cc1ccc2c(Nc3ccc(Cl)c(CN(C)C)c3)nccc2c1NC(=O)c1csc2c(N)ncnc12` [Example 59, 4-amino-N-(1-((4-chloro-3-((dimethylamino)methyl)phenyl)amino)-6-methylisoquinolin-5-yl)thieno[3,2-d]pyrimidine-7-carboxamide], the concentration for half-maximal inhibition (IC50) in assay [1] was determined as 47 nM; in assay [2], 236 nM; against RAF1 Y340D Y341D (C-RAF), 6 nM; on B-RAF normal type, 42 nM; on B-RAF^V600E it was 7 nM.

Take `CC(=O)c1ccc(Nc2nccc3c(NC(=O)c4csc5c(N)ncnc45)c(C)ccc23)cc1` [Example 83, N-(1-((4-acetylphenyl)amino)-6-methylisoquinolin-5-yl)-4-aminothieno[3,2-d]pyrimidine-7-carboxamide]: the half-inhibitory concentration (IC50) was determined as 30 nM in assay [1]; 10 nM at DDR2; 60 nM in assay [2]; 4 nM against FMS; 5 nM at DDR1; 7 nM on RAF1 Y340D Y341D (C-RAF). For the same compound, the figures for the half-inhibitory concentration (IC50) against B-RAF normal type and at B-RAF^V600E were 12 nM and 5 nM, respectively.

Consider `Cc1ccc2c(Nc3ccc(F)c(Cl)c3)nccc2c1NC(=O)c1csc2c(N)ncnc12` [Example 105, 4-amino-N-(1-((3-chloro-4-fluorophenyl)amino)-6-methylisoquinolin-5-yl)thieno[3,2-d]pyrimidine-7-carboxamide], for which the IC50 in assay [1] came out at 90 nM; at DDR2, 181 nM; in assay [2] it was 210 nM; against FMS, 50 nM; at DDR1 it was 71 nM; on RAF1 Y340D Y341D (C-RAF) it was 15 nM. The 50% inhibitory concentration (IC50) amounted to 179 nM at B-RAF normal type and 31 nM at B-RAF^V600E.

For the compound `Cc1ccc2c(Nc3cccc(Cl)c3F)nccc2c1NC(=O)c1csc2c(N)ncnc12` [Example 116, 4-amino-N-(1-((3-chloro-2-fluorophenyl)amino)-6-methylisoquinolin-5-yl)thieno[3,2-d]pyrimidine-7-carboxamide], the half-inhibitory concentration (IC50) is 38 nM in assay [1]; 44 nM on DDR2; 76 nM in assay [2]; 10 nM on FMS; 23 nM against DDR1; 5 nM at RAF1 Y340D Y341D (C-RAF). The IC50 against B-RAF normal type was determined as 56 nM; at B-RAF^V600E, 7 nM.
